How the values were obtained:
Assay type in all cases: biochemical
[1] = biological target: T1, JAK1 (Homo sapiens, UniProt P23458); assay: JAK1 Inhibition Assay (Omnia kinase fluorescence peptide substrate); conditions: averaged IC50 ranges; 40 μM (Km app) or 1 mM ATP, 15 nM JAK1
T1 construct: purchased Invitrogen Corporation, Carlsbad, Calif; IVGN PV4775
Excerpt: (§1) The assays described in Examples A, B, C and D for the determination of Tyk2, JAK1, JAK2 and JAK3 kinase activity, respectively, utilized the Omnia® Kinase fluorescence peptide substrate-based technology (Invitrogen). The specific components of the assay mixture are described in Examples A, B, C and D. In these assays, Mg^2+ is chelated upon phosphorylation of the Omnia peptide by the kinase to form a bridge between the chelation-enhanced fluorophore Sox and the phosphate, resulting in an increase in fluorescence emission at 485 nm when excited at […]. The reactions were therefore read at excitation 360 nm and emission was measured at 485 nm every 50 seconds for 45 minutes using a PerkinElmer EnVision Multilabel Plate Reader.
(§2) The final buffer conditions for Tyk2, JAK1, JAK2, and JAK3 assays were as follows: 25 mM HEPES, pH 7.4, 10 mM MgCl2, 0.01% Triton X-100 and 1 mM DTT.
(§3) Compounds were prepared at 50× the final concentration in DMSO by conducting 3-fold serial dilutions from a 500-μM intermediate dilution to give a 10-point dosing curve having a high dose of 10 μM. Two-μL aliquots of these were transferred to a fresh plate for a ten-fold intermediate dilution with assay buffer. Five-μL aliquots of the diluted compounds were then transferred to 20-μL of assay mixtures described in Examples A, B, C and D for a final concentration of DMSO of 2%. A standard or reference compound was typically included on each assay plate to validate that plate. For each plate, percent of control (POC) values were calculated for each well according to the following equation: […]
(§4) IC50's were estimated from the POC's using a standard 4-parameter logistic model:
(§5) The IC50 is defined as the concentration of inhibitor at which the POC equals 50 for the fitted curve.
Compounds of Formula I were screened for their ability to inhibit JAK1 using the general enzyme inhibition assay method, in which the assay mixture contained 40 μM (Km app) or 1 mM ATP, 8 μM Omnia® Y12 peptide (Catalog #IVGN KPZ3121C; Invitrogen Corporation, Carlsbad, Calif.) and 15 nM JAK1 in a total volume of 20 μL. JAK1 was purchased from Invitrogen Corporation, Carlsbad, Calif. (catalog #IVGN PV4775).

[2] = biological target: T2, JAK3 (Homo sapiens, UniProt P52333); assay: JAK3 Inhibition Assay (Omnia kinase fluorescence peptide substrate); conditions: averaged IC50 ranges; 10 μM (Km app) or 1 mM ATP, 2.5 nM JAK3
T2 construct: purchased Invitrogen Corporation, Carlsbad, Calif; IVGN PV4080
T2 sequence (P52333 1-1124): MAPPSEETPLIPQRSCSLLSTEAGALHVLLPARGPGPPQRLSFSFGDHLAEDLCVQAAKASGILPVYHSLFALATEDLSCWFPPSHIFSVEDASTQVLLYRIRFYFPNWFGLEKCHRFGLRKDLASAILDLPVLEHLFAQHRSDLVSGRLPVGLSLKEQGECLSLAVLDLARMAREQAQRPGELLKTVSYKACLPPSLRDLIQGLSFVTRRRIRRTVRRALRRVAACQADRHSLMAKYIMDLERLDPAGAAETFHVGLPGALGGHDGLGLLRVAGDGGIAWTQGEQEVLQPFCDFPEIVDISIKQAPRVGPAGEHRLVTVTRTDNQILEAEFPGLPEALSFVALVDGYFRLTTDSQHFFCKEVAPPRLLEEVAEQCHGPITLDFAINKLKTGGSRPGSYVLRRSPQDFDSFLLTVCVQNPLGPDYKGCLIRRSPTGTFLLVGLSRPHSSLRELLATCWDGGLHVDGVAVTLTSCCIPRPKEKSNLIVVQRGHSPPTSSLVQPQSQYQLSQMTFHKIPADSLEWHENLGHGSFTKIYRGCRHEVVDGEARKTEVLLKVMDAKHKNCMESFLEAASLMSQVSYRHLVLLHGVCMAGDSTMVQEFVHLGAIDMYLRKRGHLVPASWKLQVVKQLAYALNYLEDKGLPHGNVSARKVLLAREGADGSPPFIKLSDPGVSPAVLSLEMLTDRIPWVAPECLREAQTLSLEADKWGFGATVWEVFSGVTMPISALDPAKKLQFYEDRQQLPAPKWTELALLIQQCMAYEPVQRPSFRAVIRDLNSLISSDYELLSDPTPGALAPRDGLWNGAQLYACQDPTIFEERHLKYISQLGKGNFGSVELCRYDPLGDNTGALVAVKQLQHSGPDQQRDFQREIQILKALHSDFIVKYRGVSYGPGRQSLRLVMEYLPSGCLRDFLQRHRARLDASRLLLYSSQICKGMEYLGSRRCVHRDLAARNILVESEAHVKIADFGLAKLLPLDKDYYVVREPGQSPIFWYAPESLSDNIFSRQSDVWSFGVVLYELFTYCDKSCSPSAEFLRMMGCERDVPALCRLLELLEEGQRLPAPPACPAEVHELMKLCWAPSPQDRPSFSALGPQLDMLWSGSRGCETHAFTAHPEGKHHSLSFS
Excerpt: as §1, §2, §3, §4, §5
(§6) Compounds of Formula I were screened for their ability to inhibit JAK3 using the general enzyme inhibition assay method, in which the assay mixture contained 10 μM (Km app) or 1 mM ATP, 10 μM Omnia® Y7 peptide (Catalog #IVGN KNZ3071C, Invitrogen Corporation, Carlsbad, Calif.) and 2.5 nM JAK3 in a total volume of 20 μL. JAK3 was purchased from Invitrogen Corporation, Carlsbad, Calif. (catalog #IVGN PV4080).

[3] = biological target: T3, Human Tyk2 kinase domain (Homo sapiens, UniProt P29597); assay: Tyk2 Inhibition Assay (Omnia kinase fluorescence peptide substrate); conditions: averaged IC50 ranges; 10 μM (Km app) or 1 mM ATP, 2 nM Tyk2
T3 construct: comprising amino acids 886 to 1187; His10 (10 histidine residues) (C, cleaved yes); made in house
T3 sequence (P29597 886-1187): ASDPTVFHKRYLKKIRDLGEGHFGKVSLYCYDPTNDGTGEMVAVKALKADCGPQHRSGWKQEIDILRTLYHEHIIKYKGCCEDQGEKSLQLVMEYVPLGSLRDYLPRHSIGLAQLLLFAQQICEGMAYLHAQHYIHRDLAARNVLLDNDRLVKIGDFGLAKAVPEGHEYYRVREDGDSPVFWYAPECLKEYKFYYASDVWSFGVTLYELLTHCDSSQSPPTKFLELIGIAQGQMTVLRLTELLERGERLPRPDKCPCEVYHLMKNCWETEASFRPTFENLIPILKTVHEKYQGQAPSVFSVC
Excerpt: as §1, §2, §3, §4, §5
Compounds of Formula I were screened for their ability to inhibit Tyk2 using the general enzyme inhibition assay method, in which the assay mixture contained 10 μM (Km app) or 1 mM ATP, 8 μM Omnia® Y12 peptide (Catalog #IVGN KPZ3121C; Invitrogen Corporation, Carlsbad, Calif.) and 2 nM Tyk2 in a total volume of 20 μL. Human Tyk2 kinase domain, comprising amino acids 886 to 1187 with 10 additional histidine residues (histidine tag) on the carboxy terminus, was expressed and purified from bacculovirus in-house at Array BioPharma Inc. (Boulder, Colo.). The histidine tag was cleaved after purification using standard conditions.

[4] = biological target: T4, JAK2 (Homo sapiens, UniProt O60674); assay: JAK2 Inhibition Assay (Omnia kinase fluorescence peptide substrate); conditions: averaged IC50 ranges; 25 μM (Km app) or 1 mM ATP, 5 nM JAK2
T4 construct: purchased Invitrogen Corporation, Carlsbad, Calif; IVGN PV4288
T4 sequence (O60674 whole entry): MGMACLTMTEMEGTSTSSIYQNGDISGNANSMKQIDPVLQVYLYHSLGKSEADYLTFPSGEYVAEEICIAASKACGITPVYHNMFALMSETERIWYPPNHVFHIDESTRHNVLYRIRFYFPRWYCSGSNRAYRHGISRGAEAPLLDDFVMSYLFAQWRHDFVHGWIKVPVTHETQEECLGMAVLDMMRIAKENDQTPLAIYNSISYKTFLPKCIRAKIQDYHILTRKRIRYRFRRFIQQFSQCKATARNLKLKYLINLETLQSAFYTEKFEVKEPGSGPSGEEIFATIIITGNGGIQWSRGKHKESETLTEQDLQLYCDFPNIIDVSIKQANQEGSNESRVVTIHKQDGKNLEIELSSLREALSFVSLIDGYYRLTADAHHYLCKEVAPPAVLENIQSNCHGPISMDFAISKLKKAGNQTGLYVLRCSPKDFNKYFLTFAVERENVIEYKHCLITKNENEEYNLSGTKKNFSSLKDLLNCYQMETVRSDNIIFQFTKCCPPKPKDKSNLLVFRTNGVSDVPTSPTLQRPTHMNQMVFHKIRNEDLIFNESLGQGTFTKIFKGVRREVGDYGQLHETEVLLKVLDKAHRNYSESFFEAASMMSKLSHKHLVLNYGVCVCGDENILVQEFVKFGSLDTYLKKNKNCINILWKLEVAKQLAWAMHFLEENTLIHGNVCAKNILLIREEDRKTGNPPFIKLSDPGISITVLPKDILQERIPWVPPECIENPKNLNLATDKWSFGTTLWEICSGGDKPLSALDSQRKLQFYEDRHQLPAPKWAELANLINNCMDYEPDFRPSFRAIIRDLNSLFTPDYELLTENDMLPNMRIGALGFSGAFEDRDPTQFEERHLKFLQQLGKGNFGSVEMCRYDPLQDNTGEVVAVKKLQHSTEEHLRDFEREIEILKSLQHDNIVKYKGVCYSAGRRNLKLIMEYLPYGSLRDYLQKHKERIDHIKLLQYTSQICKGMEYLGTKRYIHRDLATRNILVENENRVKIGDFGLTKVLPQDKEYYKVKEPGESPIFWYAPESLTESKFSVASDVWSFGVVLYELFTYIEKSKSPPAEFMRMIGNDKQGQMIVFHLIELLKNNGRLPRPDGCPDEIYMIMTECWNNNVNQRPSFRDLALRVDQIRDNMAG
Excerpt: as §1, §2, §3, §4, §5
as §6, with “inhibit JAK2” for “inhibit JAK3”, “contained 25” for “contained 10”, “and 5” for “and 2.5”, “nM JAK2” for “nM JAK3”, “μL. JAK2” for “μL. JAK3”, “#IVGN PV4288).” for “#IVGN PV4080).”

T1 sequence (P23458 whole entry): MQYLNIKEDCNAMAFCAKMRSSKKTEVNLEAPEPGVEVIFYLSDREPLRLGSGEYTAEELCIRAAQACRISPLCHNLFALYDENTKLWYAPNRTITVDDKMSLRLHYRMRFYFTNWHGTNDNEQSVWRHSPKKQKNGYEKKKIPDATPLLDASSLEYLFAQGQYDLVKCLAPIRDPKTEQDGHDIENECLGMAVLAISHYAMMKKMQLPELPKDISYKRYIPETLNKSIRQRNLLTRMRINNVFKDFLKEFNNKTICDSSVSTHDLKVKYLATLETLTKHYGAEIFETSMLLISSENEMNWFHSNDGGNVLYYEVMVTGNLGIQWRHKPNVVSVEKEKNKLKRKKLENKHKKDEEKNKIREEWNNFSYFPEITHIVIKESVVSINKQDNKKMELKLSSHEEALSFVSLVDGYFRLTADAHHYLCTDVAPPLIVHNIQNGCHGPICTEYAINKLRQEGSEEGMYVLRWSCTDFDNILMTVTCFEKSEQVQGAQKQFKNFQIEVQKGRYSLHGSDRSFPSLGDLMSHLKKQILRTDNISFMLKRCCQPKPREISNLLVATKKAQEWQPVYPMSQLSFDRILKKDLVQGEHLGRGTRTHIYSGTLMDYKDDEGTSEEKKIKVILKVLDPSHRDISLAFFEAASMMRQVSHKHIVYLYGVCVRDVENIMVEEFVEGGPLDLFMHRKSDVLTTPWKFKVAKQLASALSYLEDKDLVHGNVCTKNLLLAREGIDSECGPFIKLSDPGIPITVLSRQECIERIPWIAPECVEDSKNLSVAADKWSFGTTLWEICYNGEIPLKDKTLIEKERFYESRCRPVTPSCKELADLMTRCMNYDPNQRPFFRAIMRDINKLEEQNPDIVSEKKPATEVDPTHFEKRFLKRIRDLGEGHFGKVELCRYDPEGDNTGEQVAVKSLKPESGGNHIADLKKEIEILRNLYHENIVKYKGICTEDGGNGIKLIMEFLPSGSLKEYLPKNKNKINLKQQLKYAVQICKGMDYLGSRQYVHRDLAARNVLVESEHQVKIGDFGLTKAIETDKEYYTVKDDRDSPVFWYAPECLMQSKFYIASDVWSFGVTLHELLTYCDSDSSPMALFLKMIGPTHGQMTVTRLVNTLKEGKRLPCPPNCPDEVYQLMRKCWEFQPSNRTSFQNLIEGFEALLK

| Structure (SMILES) | IC50 [1] | IC50 [2] | IC50 [3] | IC50 [4] |
| --- | --- | --- | --- | --- |
| Cn1cc(-c2cc3nccn3c(-c3cnn(C(CCO)C4CC4)c3)n2)cn1 (stereo not drawn) [Example 13, 3-cyclopropyl-3-(4-(7-(1-methyl-1H-pyrazol-4-yl)imidazo[1,2-c]pyrimidin-5-yl)-1H-pyrazol-1-yl)propan-1-ol] | > 1 µM | > 1 µM | 0.1 to 1 µM | 0.1 to 1 µM |
| CC(C1CC1)n1cc(-c2nc(-c3cnn(C)c3)cc3nccn23)cn1 (stereo not drawn) [Example 14, 5-(1-(1-Cyclopropylethyl)-1H-pyrazol-4-yl)-7-(1-methyl-1H-pyrazol-4-yl)imidazo[1,2-c]pyrimidine] | > 1 µM | > 1 µM | 0.01 to 0.1 µM | 0.1 to 1 µM |
| CCCC(C1CC1)n1cc(-c2nc(-c3cnn(C)c3)cc3nccn23)cn1 (stereo not drawn) [Example 15, 5-(1-(1-Cyclopropylbutyl)-1H-pyrazol-4-yl)-7-(1-methyl-1H-pyrazol-4-yl)imidazo[1,2-c]pyrimidine] | 0.1 to 1 µM | 0.1 to 1 µM | 0.01 to 0.1 µM | 0.01 to 0.1 µM |
| Cn1cc(-c2cc3nccn3c(-c3cnn(C4(C)CN(S(=O)(=O)C(F)(F)F)C4)c3)n2)cn1 [Example 16, 5-(1-(3-Methyl-1-(trifluoromethylsulfonyl)azetidin-3-yl)-1H-pyrazol-4-yl)-7-(1-methyl-1H-pyrazol-4-yl)imidazo[1,2-c]pyrimidine] | 0.1 to 1 µM | > 1 µM | 0.01 to 0.1 µM | 0.1 to 1 µM |
| Cn1cc(-c2cc3nccn3c(-c3cnn(C(CCF)C4CC4)c3)n2)cn1 (stereo not drawn) [Example 17, 5-(1-(1-Cyclopropyl-3-fluoropropyl)-1H-pyrazol-4-yl)-7-(1-methyl-1H-pyrazol-4-yl)imidazo[1,2-c]pyrimidine] | 0.1 to 1 µM | 0.1 to 1 µM | < 0.01 µM | 0.01 to 0.1 µM |
| Cn1cc(-c2cc3nccn3c(-c3cnn(C4(CCF)CN(S(=O)(=O)C(F)(F)F)C4)c3)n2)cn1 [Example 18, 5-(1-(3-(2-Fluoroethyl)-1-(trifluoromethylsulfonyl)azetidin-3-yl)-1H-pyrazol-4-yl)-7-(1-methyl-1H-pyrazol-4-yl)imidazo[1,2-c]pyrimidine] | 0.1 to 1 µM | 0.1 to 1 µM | < 0.01 µM | 0.01 to 0.1 µM |
| Cn1cc(-c2cc3nccn3c(-c3cnn(C4(CCF)CN(CC(F)(F)F)C4)c3)n2)cn1 [Example 19, 5-(1-(3-(2-Fluoroethyl)-1-(2,2,2-trifluoroethyl)azetidin-3-yl)-1H-pyrazol-4-yl)-7-(1-methyl-1H-pyrazol-4-yl)imidazo[1,2-c]pyrimidine] | > 1 µM | > 1 µM | 0.01 to 0.1 µM | 0.1 to 1 µM |

Next, values leading:

| IC50 [1] | IC50 [2] | IC50 [3] | IC50 [4] | Structure (SMILES) |
| --- | --- | --- | --- | --- |
| 0.1 to 1 µM | 0.1 to 1 µM | 0.01 to 0.1 µM | 0.01 to 0.1 µM | CCC1(n2cc(-c3nc(-c4cnn(C)c4)cc4nccn34)cn2)CN(S(=O)(=O)C(F)(F)F)C1 [Example 20, 5-(1-(3-ethyl-1-(trifluoromethylsulfonyl)azetidin-3-yl)-1H-pyrazol-4-yl)-7-(1-methyl-1H-pyrazol-4-yl)imidazo[1,2-c]pyrimidine] |
| 0.1 to 1 µM | 0.1 to 1 µM | 0.01 to 0.1 µM | 0.01 to 0.1 µM | CSCCn1cc(-c2nc(-c3cnn(C)c3)cc3nccn23)cn1 [Example 21, 7-(1-methyl-1H-pyrazol-4-yl)-5-(1-(2-(methylthio)ethyl)-1H-pyrazol-4-yl)imidazo[1,2-c]pyrimidine] |
| 0.1 to 1 µM | 0.1 to 1 µM | 0.01 to 0.1 µM | 0.1 to 1 µM | Cn1cc(-c2cc3nccn3c(-c3ccn(C4(CCF)CN(CC#N)C4)c3)n2)cn1 [Example 22, 2-(3-(2-fluoroethyl)-3-(3-(7-(1-methyl-1H-pyrazol-4-yl)imidazo[1,2-c]pyrimidin-5-yl)-1H-pyrrol-1-yl)azetidin-1-yl)acetonitrile] |
| 0.01 to 0.1 µM | 0.01 to 0.1 µM | < 0.01 µM | 0.01 to 0.1 µM | Cn1cc(-c2cc3nccn3c(-c3ccn([C@H](CCF)[C@H]4CC4(F)F)c3)n2)cn1 [Example 23, 5-(1-((R)-1-((R)-2,2-difluorocyclopropyl)-3-fluoropropyl)-1H-pyrrol-3-yl)-7-(1-methyl-1H-pyrazol-4-yl)imidazo[1,2-c]pyrimidine] |
| 0.01 to 0.1 µM | 0.1 to 1 µM | < 0.01 µM | 0.01 to 0.1 µM | Cn1cc(-c2cc3nccn3c(-c3ccn([C@@H](CCF)[C@@H]4CC4(F)F)c3)n2)cn1 [Example 24, 5-(1-((S)-1-((S)-2,2-difluorocyclopropyl)-3-fluoropropyl)-1H-pyrrol-3-yl)-7-(1-methyl-1H-pyrazol-4-yl)imidazo[1,2-c]pyrimidine] |

Source: patent US20140228349A1, “5,7-SUBSTITUTED-IMIDAZO[1,2-C]PYRIMIDINES” (Array BioPharma Inc., priority 2011, published 2014)
